These results are taken from patent publication US20260000698A1 (priority 2022, published 2026).

A short description of data set [1]: Parallel artificial membrane permeability assay (PAMPA). In kind it is in vitro ADME. Here is the method:
Parallel artificial membrane permeability assay (PAMPA).^5 The membrane permeability of selected compounds was evaluated using the Corning® BioCoat™ Pre-coated PAMPA Plate System (Corning 353015; Glendale, AZ, USA). The pre-coated plate assembly, which was stored at −20° C., was taken to thaw for 30 min at room temperature. The permeability assay was carried out in accordance with the manufacturer's protocol. Briefly, the 96-well filter plate, pre-coated with lipids, was used as the permeation acceptor and a matching 96 well receiver plate was used as the permeation donor. Compound solutions were prepared by diluting the 10 mmol/L DMSO stock solutions with 10% methanol in DPBS to a final concentration of […]. The compound solutions were added to the wells (300 μL/well) of the receiver plate and DPBS with 10% methanol was added to the wells (200 μL/well) of the pre-coated filter plate. The filter plate was then coupled with the receiver plate and the plate assembly was incubated at 25° C. without agitation for 5 h. At the end of the incubation, the plate was separated and the final concentrations of compounds in both donor wells and acceptor wells were analyzed using LC-MS/MS. Permeability of a compound was calculated using the Eq. (1):
where A=filter area (0.3 cm^2), VD=donor well volume (0.3 mL), VA=acceptor well volume (0.2 mL), t=incubation time (seconds), CA(t)=compound concentration in acceptor well at time t, CD(t)=compound concentration in donor well at time t, and Ceq was calculated using the Eq. (2): […]
A cutoff criterion of Pe value at […] was used to classify the compounds into high and low permeability according to the literature report of this PAMPA plate system^1.

In data set [2] the target is T1, DOT1L (Homo sapiens, UniProt Q8TEK3).
T1 construct: purchased BPS Bioscience
Put plainly: Human MTase screening: DOT1L. It is filed as biochemical. How it is done: (§1) Assay conditions. The human methyltransferase inhibition assays were performed at BPS Bioscience (San Diego, CA, USA). All of the enzymatic reactions were conducted in duplicate at room temperature for 60-960 min in a 50 μL mixture containing proper methyltransferase assay buffer, S-adenosylmethionine (SAM), enzyme, and the test compound. These 50 μL reactions were carried out in wells of a substrate pre-coated plate. First, enzyme and inhibitor were added to assay wells and preincubated for 30 min at room temperature, then SAM was added to start the reaction. Final DMSO concentration was 1% in all reactions.
(§2) After enzymatic reactions, the reaction mixtures were discarded and each of the wells was washed three times with TBST buffer, and slowly shaken with Blocking Buffer for 10 min. Wells were emptied, and 100 μL of diluted primary antibody was added. The plate was then slowly shaken for 60 minutes at room temperature. […] Immediately, the luminescence of the samples was measured in a BioTek Synergy™ 2 (Winooski, VT, USA) microplate reader using Gen5 software.
(§3) Data analysis. […] The luminescence data/alpha counts were analyzed and compared. […] The percent activity in the presence of each compound was calculated according to the following equation: % activity=(C−C0)/(Ce−C0), where C=the luminescence/alpha counts in the presence of the compound.

Data set [3] addresses T2, G9a (Homo sapiens, UniProt Q96KQ7).
T2 construct: purchased BPS Bioscience
T2 sequence (Q96KQ7 1-1210): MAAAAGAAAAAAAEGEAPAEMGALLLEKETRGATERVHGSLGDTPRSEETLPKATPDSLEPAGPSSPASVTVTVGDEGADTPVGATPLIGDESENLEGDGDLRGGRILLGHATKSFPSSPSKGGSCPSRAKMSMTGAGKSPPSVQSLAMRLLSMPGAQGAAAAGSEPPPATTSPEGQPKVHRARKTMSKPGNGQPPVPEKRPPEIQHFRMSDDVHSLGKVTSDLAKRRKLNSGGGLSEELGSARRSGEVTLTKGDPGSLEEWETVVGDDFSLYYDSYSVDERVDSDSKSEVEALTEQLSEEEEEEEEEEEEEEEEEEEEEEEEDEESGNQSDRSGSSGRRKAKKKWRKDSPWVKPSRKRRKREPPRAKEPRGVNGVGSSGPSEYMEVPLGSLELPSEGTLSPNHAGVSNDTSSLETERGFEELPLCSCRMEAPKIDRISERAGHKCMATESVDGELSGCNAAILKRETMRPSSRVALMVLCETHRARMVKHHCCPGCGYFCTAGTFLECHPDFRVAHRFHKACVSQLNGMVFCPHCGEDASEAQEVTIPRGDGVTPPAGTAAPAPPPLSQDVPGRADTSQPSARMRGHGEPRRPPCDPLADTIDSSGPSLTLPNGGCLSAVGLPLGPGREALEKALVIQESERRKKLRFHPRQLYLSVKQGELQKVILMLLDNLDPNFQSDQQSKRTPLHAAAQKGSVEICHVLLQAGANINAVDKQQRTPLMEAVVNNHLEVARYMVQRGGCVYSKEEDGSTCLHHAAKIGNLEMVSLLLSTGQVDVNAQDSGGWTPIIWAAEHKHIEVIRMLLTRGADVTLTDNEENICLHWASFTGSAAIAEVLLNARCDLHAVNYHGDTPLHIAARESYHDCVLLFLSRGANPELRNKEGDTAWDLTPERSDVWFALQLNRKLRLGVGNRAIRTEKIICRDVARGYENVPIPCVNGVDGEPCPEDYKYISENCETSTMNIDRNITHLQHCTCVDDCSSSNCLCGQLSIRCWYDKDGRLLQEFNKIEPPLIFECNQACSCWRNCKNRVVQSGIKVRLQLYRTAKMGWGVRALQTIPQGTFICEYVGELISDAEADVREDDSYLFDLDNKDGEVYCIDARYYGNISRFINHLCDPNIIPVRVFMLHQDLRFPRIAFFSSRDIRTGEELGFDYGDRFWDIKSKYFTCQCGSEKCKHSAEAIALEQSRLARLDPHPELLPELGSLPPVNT
Put plainly: Human MTase screening: G9a. In kind it is biochemical. Here is the method:
as §1, §2, §3

The test system of data set [4] is panel of 10 human MTases. Put plainly: Human MTase screening, whole panel. It is filed as biochemical. As to conditions: 10 μM. How it is done: To evaluate selectivity over human MTases, compound 3 was screened against a panel of 10 human MTases including histone lysine, protein arginine, DNA and RNA MTases. […] These preliminary results bolstered our premise that it was feasible to design selective Nsp14 MTase because of its unique structure in contrast to the canonical Rossmann fold.
Assay conditions. The human methyltransferase inhibition assays were performed at BPS Bioscience (San Diego, CA, USA). All of the enzymatic reactions were conducted in duplicate at room temperature for 60-960 min in a 50 μL mixture containing proper methyltransferase assay buffer, S-adenosylmethionine (SAM), enzyme, and the test compound. These 50 μL reactions were carried out in wells of a substrate pre-coated plate. […]
After enzymatic reactions, the reaction mixtures were discarded and each of the wells was washed three times with TBST buffer, and slowly shaken with Blocking Buffer for 10 min. […] Immediately, the luminescence of the samples was measured in a BioTek Synergy™ 2 (Winooski, VT, USA) microplate reader using Gen5 software.
as §3

The target of data set [5] is T3, METTL3/METTL14 (Homo sapiens, UniProt Q86U44).
T3 construct: purchased BPS Bioscience
Put plainly: Human MTase screening: METTL3/METTL14. It is filed as biochemical. Here is the method: as §1, §2, §3

T1 sequence (Q8TEK3 whole entry): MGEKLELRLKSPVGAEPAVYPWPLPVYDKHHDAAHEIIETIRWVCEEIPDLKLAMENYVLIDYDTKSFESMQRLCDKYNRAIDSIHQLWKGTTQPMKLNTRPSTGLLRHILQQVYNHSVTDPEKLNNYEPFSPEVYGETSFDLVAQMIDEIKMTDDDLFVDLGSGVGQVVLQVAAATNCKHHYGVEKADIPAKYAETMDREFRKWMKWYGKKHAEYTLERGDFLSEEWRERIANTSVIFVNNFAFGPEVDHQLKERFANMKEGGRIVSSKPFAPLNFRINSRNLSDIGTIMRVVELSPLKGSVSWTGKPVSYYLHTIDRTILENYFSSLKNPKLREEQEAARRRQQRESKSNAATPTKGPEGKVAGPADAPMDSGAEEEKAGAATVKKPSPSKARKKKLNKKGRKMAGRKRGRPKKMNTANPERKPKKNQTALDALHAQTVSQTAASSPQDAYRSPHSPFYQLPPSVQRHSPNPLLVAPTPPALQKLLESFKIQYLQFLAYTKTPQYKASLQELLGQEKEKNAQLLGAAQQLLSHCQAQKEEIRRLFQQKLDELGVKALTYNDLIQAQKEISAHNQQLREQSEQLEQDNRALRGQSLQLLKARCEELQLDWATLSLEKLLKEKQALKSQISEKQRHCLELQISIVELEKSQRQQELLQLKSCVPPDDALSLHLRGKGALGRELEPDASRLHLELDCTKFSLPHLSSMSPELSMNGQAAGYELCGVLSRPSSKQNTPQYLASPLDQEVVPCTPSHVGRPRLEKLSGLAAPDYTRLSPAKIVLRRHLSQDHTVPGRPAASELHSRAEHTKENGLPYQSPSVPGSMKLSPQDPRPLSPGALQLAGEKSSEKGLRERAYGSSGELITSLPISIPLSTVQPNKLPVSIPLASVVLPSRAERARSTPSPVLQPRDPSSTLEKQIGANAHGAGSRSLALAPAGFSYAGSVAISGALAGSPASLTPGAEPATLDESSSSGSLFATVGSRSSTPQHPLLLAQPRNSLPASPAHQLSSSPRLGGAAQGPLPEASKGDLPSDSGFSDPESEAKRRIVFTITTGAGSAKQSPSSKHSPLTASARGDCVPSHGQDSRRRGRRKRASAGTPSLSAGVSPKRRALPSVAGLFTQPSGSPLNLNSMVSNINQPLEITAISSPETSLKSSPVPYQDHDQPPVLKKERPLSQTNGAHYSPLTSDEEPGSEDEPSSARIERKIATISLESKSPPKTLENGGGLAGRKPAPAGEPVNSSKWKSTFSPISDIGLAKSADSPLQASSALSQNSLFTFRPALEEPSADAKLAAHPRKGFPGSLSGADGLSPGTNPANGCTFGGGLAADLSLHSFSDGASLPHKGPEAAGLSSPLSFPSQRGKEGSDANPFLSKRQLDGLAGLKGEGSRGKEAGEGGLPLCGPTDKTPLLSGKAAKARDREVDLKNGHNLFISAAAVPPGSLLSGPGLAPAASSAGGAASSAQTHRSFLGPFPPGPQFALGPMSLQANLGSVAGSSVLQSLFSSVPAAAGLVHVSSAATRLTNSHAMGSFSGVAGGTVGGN
T3 sequence (Q86U44 whole entry): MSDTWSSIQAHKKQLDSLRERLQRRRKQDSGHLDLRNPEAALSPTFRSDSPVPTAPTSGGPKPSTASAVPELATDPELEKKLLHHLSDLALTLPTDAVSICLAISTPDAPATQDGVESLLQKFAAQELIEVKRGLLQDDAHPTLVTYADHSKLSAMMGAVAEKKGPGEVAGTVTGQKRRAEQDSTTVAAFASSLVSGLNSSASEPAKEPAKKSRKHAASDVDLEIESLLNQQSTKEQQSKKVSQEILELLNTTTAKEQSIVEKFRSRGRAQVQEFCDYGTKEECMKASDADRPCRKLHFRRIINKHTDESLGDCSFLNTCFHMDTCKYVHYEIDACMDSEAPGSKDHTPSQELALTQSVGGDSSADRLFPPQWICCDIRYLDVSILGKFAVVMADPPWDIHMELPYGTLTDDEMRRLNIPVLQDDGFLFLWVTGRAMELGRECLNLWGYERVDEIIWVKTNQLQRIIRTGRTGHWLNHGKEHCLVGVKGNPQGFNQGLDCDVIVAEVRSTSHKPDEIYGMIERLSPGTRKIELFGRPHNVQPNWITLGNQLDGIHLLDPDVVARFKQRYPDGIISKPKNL
T3 sequence (Q9HCE5 whole entry partner): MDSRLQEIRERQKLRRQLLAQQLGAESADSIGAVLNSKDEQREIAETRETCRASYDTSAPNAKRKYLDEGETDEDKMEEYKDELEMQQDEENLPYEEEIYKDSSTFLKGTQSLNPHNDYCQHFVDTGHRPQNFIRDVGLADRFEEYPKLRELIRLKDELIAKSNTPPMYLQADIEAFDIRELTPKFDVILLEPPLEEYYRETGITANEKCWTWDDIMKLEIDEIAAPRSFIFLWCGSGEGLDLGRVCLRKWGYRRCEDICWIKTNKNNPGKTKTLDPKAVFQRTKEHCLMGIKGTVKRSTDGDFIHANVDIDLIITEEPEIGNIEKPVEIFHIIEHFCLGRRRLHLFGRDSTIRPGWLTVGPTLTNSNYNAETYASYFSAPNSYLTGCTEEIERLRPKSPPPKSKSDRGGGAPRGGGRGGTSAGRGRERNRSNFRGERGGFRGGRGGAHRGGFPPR

Turning to `Nc1ncnc2c1ncn2[C@@H]1O[C@H](CNS(=O)(=O)c2ccc3ccccc3c2)[C@@H](O)[C@H]1O` [Compound 3, N-(((2R,3S,4R,5R)-5-(6-Amino-9H-purin-9-yl)-3,4-dihydroxytetrahydrofuran-2-yl)methyl)naphthalene-2-sulfonamide], the “passive diffusion rate in PAMPA” value in data set [1] (PAMPA) is “equally low”. Moreover, the “PAMPA Permeability Pe” value in data set [1] (n = 6, mean±SD, 25° C., 5 h) is on record as 0.2 ± 0.1 10^−6 cm/s. In addition, the values for the inhibition at 10 µM in data set [2], in data set [3] and in data set [5] were 10%, 11% and 10%, respectively. The “inhibition of a panel of 10 human MTases” value in data set [4] is “minimal inhibition”.
